Legend:
ApoE-/- mice [1] = assay: Existing atherosclerotic disease in ApoE-/- mice, 4 weeks of treatment, plaque morphology; assay type: in vivo, mouse
Method: In this study, six ApoE−/− mice received a normal chow diet from 0 to 20 weeks of age. At 20 weeks of age, three mice were randomly assigned to receive dose of 1 mg/kg of KGYY15 (15-mer—SEQ ID NO:7) by IV tail injection, once a week for a period of 4 weeks. Control mice received vehicle only. After 4 weeks of treatment, animals were euthanized then perfused through cardiac puncture with 4% paraformaldehyde. Aortic arches were dissected in surcrose gradient and flash frozen. Approximately fifty, […] longitudinal sections were obtained per mouse. Slides were treated with trichrome stain and analyzed using cellSens software for measurements. Total plaque was measured including 2.5 mm lesser curvature and innominate artery.

ApoE deficient mice = assay: Atherosclerosis in ApoE deficient mice on normal chow, aortic arch analysis; assay type: in vivo, mouse
Method: ApoE deficient mice on a normal chow diet were selected to receive a dose of 1 mg/kg of the 15-mer peptide (SEQ ID NO: 7) by IV tail injection, three times a week over a period of […], beginning at 9 weeks of age and also utilized a control. At 25 weeks, the animals were euthanized, weighed, and then had blood, spleen, and pancreas removed for analysis. The subjects were then perfused through cardiac puncture with 4% paraformaldehyde. Aortic arches were dissected, dehydrated in sucrose gradient and then flash frozen.
FIG. 17 provides an example of the lesser curvature of the aortic arch, defined proximally from the aortic outflow (AO). Of the segments seen in the trichrome stain, an intimal distance of […] was measured distally. The aortic-arch wall area subtended by this 2.5 mm stretch of the intima was calculated for each section of all mice, with maximal area of the inner-aortic-arch wall of each mouse used to compute averages per group. The luminal surface (L), aortic arch (AO), and innominate artery (I) are labelled in this FIG. 17.
Plaque was subdivided based on morphology of early lesions (observable as fatty streaks containing macrophage derived foam cells with varying degrees of lipid accumulation) compared with more advanced fibroatheromas (containing varying degrees of lipid or necrotic core and fibrous caps). All plaque within the designated 2.5 mm segment were included.

CD40+ T-cells = assay: Binding of FITC-labeled 15-mer peptide to Th40 cells, flow cytometry; design: species or system mouse; conditions: lymphocytes of 9 week old NOD mice
Method: Total lymphocytes were isolated from 9 week old NOD mice. The lymphocytes were incubated with […], anti-CD8, and an FITC-labeled 15-mer peptide, and then analyzed by flow cytometry. Cells were gated for CD4 (both CD4hi and CD4lo populations were included) and CD4 versus the 15-mer peptide.

blood cells = assay: Binding of biotin-conjugated 15-mer peptide to whole blood cells of type-I diabetic and control subjects; design: species or system human; conditions: type-I diabetes patients versus non-diabetic controls, absorbance at 405 nm
Method: 1 ml of whole blood was obtained from each individual and incubated with biotin-conjugated, 15-mer peptide. The cells were then exposed to horseradish peroxidase (HRP)-avidin, washed and the absorbance at 405 nm determined using a spectrophotometer.

NOD mice [2] = assay: Development of diabetes in NOD mice treated with CD154 peptides; assay type: in vivo, mouse; conditions: weekly iv injection from 6 weeks of age, diabetic = blood glucose above 250 mg/dL on 3 consecutive measures
Method: (§1) Peptides were designed based on the amino acid sequence of mouse CD154 protein (SEQ ID NO:1) in the SwissPro database. […] Weekly after the initial injection, another 100 ug of peptide (or 100 ul of saline in the case of the Control mice) was injected into the tail vein. At 10 weeks of age, mice were monitored for diabetes, as indicated by a blood glucose level greater than 250 mg/dL for three consecutive days. During this time, blood was also taken from the tail vein, or by sub-mandibular venal puncture, and the level of CD4+ and CD8+ cells determined by flow cytometry using antibodies for CD4 protein and CD8 protein.
NOD mice at 6 weeks of age were injected weekly iv with 25 ug (1 mg/kg) of each peptide through 45 weeks. Each cohort included 10 animals. Blood glucoses were measured and levels at 250 mg/dl or higher for 3 consecutive measures were considered diabetic. […] (This is showing in FIG. 1).

[3] = Clot study in whole human blood; conditions: dosing levels similar to murine studies
Method: Whole human blood was administered the peptide in accordance with similar dosing levels to those used for murine studies.

NOD mice [4] = assay: CD4/CD8 ratio in blood of peptide-treated NOD mice by flow cytometry; assay type: in vivo, mouse
Method: as §1

NOD mice [5] = assay: Insulin granulation of pancreas in NOD mice after reversal of hyperglycemia; assay type: in vivo, mouse; conditions: six weeks after reversal of hyperglycemia, versus irrelevant peptide
Method: (§2) At the onset of diabetes, six NOD mice were injected with 100 ug/ml of the 15-mer peptide (SEQ ID NO:9), resulting in the reversal of hyperglycemia in 80% of the recipients. Six weeks after reversal of hyperglycemia, mice were sacrificed and the pancreas removed for analysis. The pancreas was fixed, sectioned and then stained using an aldehyde/fuschsin stain that allows detection of insulin granules. Granulation of the tissue was scored as follows: 4=completely granulated; 3=75% of islet granulated; 2=50% of islet granulated, and peri-insulitis; 1=25% of islet granulated; 0=no insulin granules detected.

NOD mice [6] = assay: Reversal of hyperglycemia in already diabetic NOD mice; assay type: in vivo, mouse
Method: Six mice from that had received the 6-mer peptide in Example 1, and that had subsequently developed diabetes, were injected intravenously with 100 ug of the 15-mer peptide. These mice were then given weekly injections of the 15-mer peptide into their tail veins, and their blood glucose levels monitored twice-weekly. The 15-mer peptide was administered for a total of ten weeks, after which the treatment was stopped.
as §2

B cells = assay: Binding of FITC-labeled 15-mer peptide to B cells, flow cytometry; design: species or system mouse; conditions: B cells from spleens of NOD mice, 90% CD40 positive
Method: B cells were isolated from the spleens of NOD mice. Sorted MHC-II+ cells were purified from total lymphocytes. Cells were stained with FITC-labeled 15 mer peptide, anti-CD40, and B cell markers CD19 and CD21. MHC-II+ cells were gated for CD19+ and CD21+ and then 15-mer peptide versus CD40 antibody was measured.

ApoE-/- mice [7] = assay: Atherosclerotic changes in ApoE-/- mice on high fat diet (en-face Sudan IV, Paigen method, trichrome); assay type: in vivo, mouse
Method: ApoE−/− mice were fed a high fat diet for 16 weeks. Mice were randomly assigned to receive dose of 1 mg/kg of KGYY6 (6-mer—SEQ ID NO:4) by IV tail injection, once a week for a period of 4 weeks. Control mice received vehicle only. Atherosclerosis was investigated by several methods. […] FIG. 28A is an image of KGYY6 treated aortic en-face Sudan IV staining and FIG. 28B is an image of control (untreated) aortic en-face Sudan staining.
Further, measurement of plaque area and morphology was performed using the Paigen method. This method obtains sequential 5 um aortic cross sections from the aortic root beginning at the valve leaflets into the ascending aorta. At 50 um intervals, slides are stained after which the area of atherosclerotic lesion is measured. Individual plaque area measurements are plotted against the micrometer intervals and a curve is established, with the area under the curve (AUC) giving the total volume of plaque.
ApoE−/−mice (n=16, 4 male and 4 female per group), fed a 60% high fat diet (Research Diets) for 16 weeks. 8 mice were injected with 1 mg/kg KGYY6 and […] with vehicle alone. Glucose tolerance testing (GTT) was performed by fasting 6 hours, followed by intraperitoneal injection of 1 g/kg body weight glucose in water. Both blood glucose and serum insulin were measured at 0, 15 min, 30 min, 60 min and 2 hours.

[8] = tested on: CD3+CD4+CD40+ splenic cells (Th40 cells); assay: In vitro cytokine production of splenic Th40 cells, flow cytometry; assay type: cell-based, mouse; conditions: splenic lymphocytes of ApoE and C57BL/6 mice, overnight with varying concentrations of peptide
Method: Spleens from ApoE mice and C57BL/6 mice were processed for lymphocytes. ApoE−/− and C57BL/6 mice were fed a 60% high fat diet (research diet) for 1 week. Splenic lymphocytes were treated with 6-mer in vitro for 24 hours. Cells were placed in media overnight in the presence of varying concentrations of 6-mer peptides. The following morning, Brefeldin A was administered for 4 hours. All cells were stained for CD3, CD4, CD40 (Th40 cells) and measured by use of flow cytometry for their production of IL2, INFγ, and IL17a.
Spleens from ApoE mice and C57BL/6 mice were processed for lymphocytes, placed in media overnight in the presence of varying concentrations of KGYY6 peptide. BrefeldinA was administered for four hours.

ApoE-/- mice [9] = assay: LDL cholesterol in ApoE-/- mice; assay type: in vivo, mouse; conditions: 1 mg/kg IV once a week for 4 weeks, treated versus untreated
Method: In this study, six ApoE−/− mice received a normal chow diet from 0 to 20 weeks of age. At 20 weeks of age, three mice were randomly assigned to receive dose of 1 mg/kg of KGYY6 (6-mer—SEQ ID NO:4) by IV tail injection, once a week for a period of 4 weeks. Control mice received vehicle only.

[10] = 1 mg/kg IV once a week for 4 weeks
[11] = trichrome staining, Image Pro Plus analysis

VLQWAKKGYYTMKSN (VLQWAKKGYYTMKSK) [15-mer, 15-mer peptide from mouse CD154]
average cap width (cap size) (ApoE-/- mice [1]; [10]): greater | average core width (core size/plaque size) (ApoE-/- mice [1]; [10]): decreased | cap to core ratio of advanced plaques (ApoE-/- mice [1]; [10]): reduced | number of individual early plaques and advanced plaques (ApoE-/- mice [1]; 1 mg/kg IV once a week for 4 weeks from 20 weeks of age): reduced | atherosclerosis (ApoE deficient mice; 1 mg/kg IV three times a week): abrogates atherosclerosis | total area of the 2.5 mm segment of the lesser curvature of the aortic arch (ApoE deficient mice; 1 mg/kg IV three times a week from 9 weeks of age): substantially reduced | total number of plaque (ApoE deficient mice; 1 mg/kg IV three times a week, plaque within 2.5 mm segment): significantly decreased | CD40+ T-cells that bind the peptide (CD40+ T-cells): 90% | peptide binding activity of blood cells (blood cells): higher 15-mer peptide binding activity than cells from non-diabetic controls | development / onset of diabetes (NOD mice [2]): prevented the onset of diabetes | development / onset of diabetes (NOD mice [2]; listed as KGYY15): prevents diabetes onset in NOD mice | clotting of whole human blood [3]: does not modify or change the clotting of whole human blood significantly outside of normally recognized levels | compromise of the immune system as determined by the CD4/CD8 ratio (NOD mice [4]): did not result in compromise of the immune system | insulin granulation of the pancreas (NOD mice [5]): preserved insulin granules in the majority of the mice | reversal of hyperglycemia (NOD mice [6]; already diabetic NOD mice, 100 ug iv weekly for ten weeks): can reverse hyperglycemia | return of hyperglycemia after cessation of the treatment (NOD mice [6]; diabetic NOD mice, treatment stopped after ten weeks): ≤ 7 weeks | recipients with reversal of hyperglycemia (NOD mice [6]; six NOD mice injected at onset of diabetes): 80% | B cells that bound the peptide (B cells): 8%

VLQWAKKGYYTMK [13-mer]
development / onset of diabetes (NOD mice [2]): significant effects on the development of diabetes

KKGYYT [KGYY6]
lesion areas, en-face Sudan IV stain (ApoE-/- mice [7]; ApoE-/- mice, high fat diet 16 weeks, 1 mg/kg IV once a week for 4 weeks): significant reduction in lesion areas | plaque volume (area under the curve), Paigen method (ApoE-/- mice [7]; ApoE-/- mice, high fat diet, aortic root cross sections): reduction in plaque volume under the curve | plaque composition: collagen (ApoE-/- mice [7]; [11]): increased collagen | plaque composition: smooth muscle content (ApoE-/- mice [7]; [11]): reduced smooth muscle content | production of IFNg [8]: varying degrees of reduction | production of IL2 [8]: varying degrees of reduction | production of IL17a [8]: varying degrees of reduction | development / onset of diabetes (NOD mice [2]): prevents diabetes onset in NOD mice | reduction in LDL cholesterol values (ApoE-/- mice [9]): > 50%

Source: US20200072837A1, “METHODS FOR PREVENTING, MODULATING AND/OR REDUCING CARDIOVASCULAR DISEASE” (OP-T LLC, priority 2018, published 2020)
